Measurements: patent US8334315B2, “Substituted aromatic carboxamide and urea derivatives as vanilloid receptor ligands” (Gruenenthal GmbH, priority 2009, dated 2012)

Molecular target: T1, rat-species vanilloid receptor 1 (VR1/TRPV1) (Rattus norvegicus, UniProt O35433)
T1 construct: endogenous in cells; host or cells: primary cells dissociated from rat dorsal root ganglia (DRG), cultured 2-3 days with NGF
Test: Functional test on rat VR1, NADA (N-arachidonoyl dopamine) stimulus
Type: cell-based
Parameters: key to Ki (rat) NADA: agonist / partial agonist / no effect: AG=agonist; pAG=partial agonist; NE=no effect
Source text: I. Functional Testing Carried Out on the Vanilloid Receptor 1 (VRI/TRPV1 Receptor)
The agonistic or antagonistic effect of the substances to be tested on the rat-species vanilloid receptor 1 (VR1/TRPV1) can be determined using the following assay. In this assay, the influx of Ca^2+ through the receptor channel is quantified with the aid of a Ca^2+-sensitive dye (type Fluo-4, Molecular Probes Europe BV, Leiden, the Netherlands) in a fluorescent imaging plate reader (FLIPR, Molecular Devices, Sunnyvale, USA).
The vertebral column is removed from decapitated rats and placed immediately into cold HBSS buffer (Hank's buffered saline solution, Gibco Invitrogen GmbH, Karlsruhe, Germany), i.e. buffer located in an ice bath, mixed with 1% by volume (per cent by volume) of an AA solution (antibiotic/antimyotic solution, PAA, Pasching, Austria). […] The resulting pellet is respectively taken up in 250 μL of complete medium and the cell count is determined.
The number of cells in the suspension is set to 3×10^5 per ml and 150 μL of this suspension are in each case introduced into a recess in the cell culture plates coated as described hereinbefore. […] The Ca^2+-dependent fluorescence is in this case measured before and after the addition of substances (λex=488 nm, λem=540 nm). Quantification is carried out by measuring the highest fluorescence intensity (FC, fluorescence counts) over time. […]

T1 sequence (O35433 whole entry): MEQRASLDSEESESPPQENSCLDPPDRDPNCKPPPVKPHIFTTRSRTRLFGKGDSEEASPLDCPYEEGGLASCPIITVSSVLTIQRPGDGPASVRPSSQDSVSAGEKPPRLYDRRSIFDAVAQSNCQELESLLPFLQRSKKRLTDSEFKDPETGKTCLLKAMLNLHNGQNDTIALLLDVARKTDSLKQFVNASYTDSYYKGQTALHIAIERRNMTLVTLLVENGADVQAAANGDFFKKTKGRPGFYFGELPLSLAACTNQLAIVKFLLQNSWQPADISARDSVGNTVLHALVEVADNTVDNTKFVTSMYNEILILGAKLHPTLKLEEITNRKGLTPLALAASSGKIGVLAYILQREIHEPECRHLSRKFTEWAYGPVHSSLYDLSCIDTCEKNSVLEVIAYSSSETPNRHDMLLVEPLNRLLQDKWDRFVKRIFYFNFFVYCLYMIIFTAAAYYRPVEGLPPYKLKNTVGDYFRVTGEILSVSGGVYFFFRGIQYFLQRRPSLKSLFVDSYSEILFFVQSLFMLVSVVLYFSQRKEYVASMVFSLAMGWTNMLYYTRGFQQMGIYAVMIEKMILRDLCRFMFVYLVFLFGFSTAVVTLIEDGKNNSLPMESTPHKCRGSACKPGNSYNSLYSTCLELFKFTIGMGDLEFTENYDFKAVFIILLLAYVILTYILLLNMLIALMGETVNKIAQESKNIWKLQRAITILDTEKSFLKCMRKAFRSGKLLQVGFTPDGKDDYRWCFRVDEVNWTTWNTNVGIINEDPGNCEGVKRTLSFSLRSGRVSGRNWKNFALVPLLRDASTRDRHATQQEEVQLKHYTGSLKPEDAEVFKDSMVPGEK

| Ki (rat) NADA: agonist / partial agonist / no effect | Ki [nM] | Structure (SMILES) |
| --- | --- | --- |
| AG | – | Cc1nc2ccc(C(C)C(=O)NCc3cc(C(F)(F)F)nn3-c3cccc(Cl)c3)cc2s1 (centres unmarked) [Example 45, N-((1-(3-chlorophenyl)-3-(trifluoromethyl)-1H-pyrazol-5-yl)methyl)-2-(2-methylbenzo[d]thiazol-6-yl)propanamide] |
| – | 39.1 | CC(C)(C)c1cc(CNC(=O)Nc2ccc3c(c2)CCC3)n(-c2cccc(Cl)c2)n1 [Example 79, 1-((3-tert-butyl-1-(3-chlorophenyl)-1H-pyrazol-5-yl)methyl)-3-(2,3-dihydro-1H-inden-5-yl)urea] |
